Reference: US20030113369A1, “Liposomes with enhanced circulation time and method of treatment” (priority 1991, published 2003)
“Also recorded” adds a separate entry of the source. Where a name gives a salt, the structure may show the parent alone.

Columns and labels:
J-6456 lymphoma [1] = experiment: Tissue distribution of doxorubicin, subcutaneous tumor; type: in vivo, mice; details: heart, muscle, tumor at 4, 24, 48 hours; 10 mg/kg IV
Method: That liposome delivery to the tumor is required for selective drug targeting can be seen from the study reported in Example 12. Here mice were inoculated subcutaneously with the J-6456 lymphoma which formed a solid tumor mass of about 1 cm^3 after one-two weeks. The animals were then injected either with free doxorubicin or doxorubicin loaded into PEG-liposomes at a dose of 10 mg drug per kg body weight. The tissue distribution (heart, muscle, and tumor) of the drug was then assayed at 4, 24, and 48 hours after drug administration.
Two groups of twelve mice were injected subcutaneously with 10^6 J-6456 tumor cells. After 14 days the tumors had grown to about 1 cm^3 in size in the subcutaneous space and the animals were injected IV (tail vein) with 10 mg/kg doxorubicin as free drug (group 1) or encapsulated in PEG liposomes (group 2). At 4, 24, and 48 hours after drug injection, four animal in each group were sacrificed, and sections of tumor, heart, and muscle tissue were excised. Each tissue was weighed, then homogenized and extracted for determination of doxorubicin concentration using a standard florescence assay procedure Gabizon, 1989). The total drug measured in each homogenate was expressed as μg drug per gram tissue.

C-26 colon carcinoma [2] = experiment: Tumor treatment, subcutaneous colon carcinoma; type: in vivo, mice; details: for survival of the animals at 120 days following tumor implantation: 6 mg/kg on days 1, 8 and 15, seven animals per group; for tumor growth compared with the saline control: IV on days 1, 8 and 15, FIG. 15A
Method: Vesicle-forming lipids containing PEG-PE, PG, PHEPC, and cholesterol and α-TC in a mole ratio of 0.15:0.3:1.85:1:0.2 were dissolved in chloroform to a final lipid concentration of 25 μmol phospholipid/ml. The lipid mixture was dried into a thin film under reduced pressure. […] The MLV suspension was frozen in a dry ice acetone bath and thawed three times and sized to 80-100 nm by extrusion as detailed above. An ammonium ion gradient was created substantially as described in Example 10. The liposomes were loaded with epirubicin, and free (unbound drug) removed also as described in Example 10 for doxorubicin. […] Epirubicin HCl and doxorubicin HCL, the commercial products, were obtained from the hospital pharmacy.
About 10^6 cells C-26 colon carcinoma cells were injected subcutaneously into three groups of 35 mice. The groups were subdivided into five 7-animal subgroups.
Each group was followed for 28 days. Tumor size was measured for each animal on days 5, 7, 12, 14, 17, 21, 24 and 28. The growth of the tumor in each subgroup (expressed as the mean tumor size of the individual animals) at each time point is plotted in FIG. 15A.
The same number of animals were inoculated with the same number of tumor cells as described above.

J-6456 lymphoma [3] = experiment: Tumor treatment, survival after IP lymphoma implantation; type: in vivo, mice; details: 10 mg/kg IV
Method: A doxorubicin HCl solution to be used as the free drug control was obtained from a hospital pharmacy. A total of 30 mice were injected IP with 10^6 J-6456 lymphoma cells. The animals were divided into three 10-animal groups, each of which was injected IV with 0.4 ml of either saline vehicle, 10 mg/kg doxorubicin solution or the doxorubicin-loaded liposomes at 10 mg/kg. Each group was followed for 100 days for number of surviving animals. The percent survivors for each treatment group is plotted in FIG. 16.

Maximum tolerated dose = experiment: Maximum tolerated dose
Method: Solutions of free doxorubicin HCl, epirubicin HCl were obtained as above. PEG-liposome formulations containing either doxorubicin or epirubicin, at a drug concentration of 70-90 μg compound/μmole liposome lipid, were prepared as described in Example 10. Conventional liposomes (no PEG-derivatized lipid) were loaded with doxorubicin to a drug concentration of […] lipid using standard techniques.
Each of the five formulations was administered to 35 mice, at a dose between 10 and 40 mg drug/kg body weight, in 5 mg/kg increments, with five receiving each dosage.

Blood biochemistry = type: in vivo, mice; details: pooled serum
Method: Blood chemistries were measured in groups of both male and female mice receiving the same dose and injection schedule of free or PEG-liposomes with entrapped epirubicin as above.

[4] = Multidose toxicity of doxorubicin: weight change and histopathology; type: in vivo, mice; details: four weekly 10 mg/kg, sacrificed day 29
Method: FIG. 20 is a plot of weight changes in normal Sabra male mice untreated (open circles) or treated with four weekly intravenous injections on days […] with a 10 mg/kg dose of either free doxorubicin (open triangles) or PEG liposomes with entrapped doxorubicin (open squares); and
Similar reduced toxicity results were obtained when free doxorubicin was compared with PEG liposomes with entrapped doxorubicin, in groups of mice receiving four weekly injections of 10 mg/kg doxorubicin on days 1, 8, 15 and 22.

C-26 colon carcinoma [5] = experiment: Tumor treatment with conventional doxorubicin liposomes; type: in vivo, mice; details: 10 mg/kg on days 8, 15 and 22; FIG. 17
Method: Conventional doxorubicin liposomes (L-DOX) were prepared according to published methods (Gabizon, 1988). Briefly, a mixture of eggPG, Egg,PC, cholesterol and α-TC in a mole ratio of 0.3:1.4:1:0.2 was made in chloroform. The solvent was removed under reduced presssure and the dry lipid film hydrated with a solution of 155 mM NaCl containing 2-5 mg doxorubicin HCl. The resulting MLV preparation was down-sized by extrusion through a series of polycarbonate membranes to a final size of about 250 nm. The free (unentrapped) drug was removed by passing the suspension over a bed of Dowex resin. The final doxorubicin concentration was about […] lipid.
Three groups of 7 mice were inoculated subcutaneously with 10^5-10^6 C-26 colon carcinoma cells as detailed in Example 15. The animals were divided into three, 7-animal treatment groups, one of which receivd 0.5 ml of saline vehicle as a control. The other two groups were treated with doxorubicin either as a free drug solution or in the form of L-DOX liposomes at a dose of 10 mg/kg. The treatments were given on days 8, 15 and 22 after tumor cell inoculation. Tumor size was measured on the days treatments were given and day 28.

[6] = dog, in vivo
Method: (§1) The PEG-PE lipids were formulated with hydrogenated soy bean PC(HSPC) and cholesterol, in a mole ratio of 0.15:1.85:1 (PEG-Dox).
(§2) A doxorubicin HCl solution (the marketed product, Free Dox) was obtained from the hospital pharmacy.
(§3) Free DOX, PEG-Dox and HPI-Dox were diluted to the same concentration (1.8 mg/ml) using unbuffered 5% glucose on the day of injection. Dogs were randomized into three groups (2 females, 1 male) and weighed. An 18 gauge Venflon IV catheter was inserted in a superficial limb vein in each animal. The drug and liposome suspensions were injected by quick bolus (15 seconds). Four ml blood samples were before injection and at 5, 10, 15, 30, 45 min, 1, 2, 4, 6, 8, 10, 12, 24, 48 and 72 hours post injection. In the liposome groups blood was also drawn after 96, 120, 144, and 168 hours. Plasma was separated from the formed elements of the whole blood by centrifugation and doxorubicin concentrations assayed by standard fluorescence techniques. The amount of doxorubicin remaining in the blood was expressed as a percentage of peak concentration of labeled drug, measured immediately after injection.

C-26 colon carcinoma [7] = details: cited from earlier work
[8] = system: syngeneic mammary carcinoma cells (MC2); details: cited from earlier work
[9] = Plasma kinetics of free and liposomal doxorubicin; details: dogs
Method: as §1, §2, §3

J-6456 lymphoma [10] = experiment: Tissue distribution of doxorubicin, ascites tumor; details: for Plasma: 10 mg/kg doxorubicin IV; for Plasma / Ascites Tumor (tumor & fluid) / Heart / Liver: value (SD); for Ascites Tumor (tumor & fluid) / Heart / Liver: 10 mg/kg
Method: Two groups of 15 mice were injected interperitoneally with 10^6 J-6456 lymphoma cells. The tumor was allowed to grow for one-two weeks at which time 5 ml of ascites fluid had accumulated. The mice were then injected IV with 10 mg/kg doxorubicin either in free drug form (group 1) or entrapped in PEG liposomes as described in Example 11 (group 2). Ascites fluid was withdrawn from three animals in each group at 1, 4, 15, 24 and 48 hours post treatment. The ascites tumor was further fractionated into cellular and fluid components by centrifugation (15 min. 5000 rpm). Free and liposome-bound drug in the supernatant was determined by passing the fluid through a Dowex 50-WX-4 resin, as above, to remove free drug. The doxorubicin concentrations in the ascites fluid, tumor cells, supernatant, and resin-treated supernatant were then determined, and from these values, μg doxorubicin/gram tissue was calculated.
In a similar experiment two groups of twelve mice were implanted IP with the J-6456 lymphoma and the tumor was allowed to establish as described above. Once the ascites tumor had reached about 5 ml, one group of animals was injected with 10 mg/kg free doxorubicin and the other group with 10 mg/kg doxorubicin entrapped in PEG liposomes. At 4, 24 and 48 hours post treatment ascites fluid and blood samples were withdrawn from four animals in each group and the animals were sacrificed. Sections of liver and heart tissue were excised from each animal, homogenized and drug concentration assayed as described above. Plasma was separated from whole blood by centrifugation and drug concentration assayed as stated above. Doxorubicin concentration in the ascites fluid was also measured. Plasma and ascites fluid levels are expressed as pg doxorubicin per ml and liver and heart tissue values as pg doxorubicin per gram tissue. The standard deviations for each measurement is shown in parentheses.

[11] = system: syngeneic MC2 mouse mammary carcinoma; experiment: Tumor treatment, breast carcinoma; type: in vivo, C3H/He mice; details: 6 mg/kg IV on days 1, 8 and 15; FIG. 21
Method: Ten-week-old female C3H/He mice were randomized into three groups of 20 animals and each received bilateral subcutaneous implants of 10^5˜10^6 syngeneic MC2 mouse mammary carcinoma cells on day 0. Intravenous injections of 6 mg/kg of free epirubicin, PEG liposomes with entrapped epirubicin (6 mg/kg) or a saline control were given on days 1, 8 and 15. Weights of the animals were taken on days 0, 7, 14, 22 and 24.
Results of the study are plotted in FIG. 21, where mean tumor size for the three treatment groups is as indicated, expressed as mean tumor size (in mm^3×10^−1) for all three treatment groups. […] At day 24 the statistical confidence between the liposome and free drug groups is extremely high (+=9.9, p<0.0000001 using the Student's +tests).

[12] = Multidose toxicity of epirubicin: weight change and heart histology; type: in vivo, mice
[13] = Survival at 120 days following a single injection

COc1cccc2c1C(=O)c1c(O)c3c(c(O)c1C2=O)C[C@@](O)(C(=O)CO)C[C@@H]3O[C@H]1C[C@H](N)[C@H](O)[C@H](C)O1.Cl [Free DOX, Doxorubicin HCl]
selective drug accumulation in the tumor (J-6456 lymphoma [1]): No selective drug accumulation into the tumor occurred
survival of the animals at 120 days following tumor implantation (C-26 colon carcinoma [2]): none
tumor growth compared with the saline control (C-26 colon carcinoma [2]): neither free doxorubicin nor free epirubicin at 6 mg/kg significantly suppressed tumor growth
survival relative to the saline group (J-6456 lymphoma [3]): little improvement in survival over the saline group
Maximum Tolerated Dose (Maximum tolerated dose; in mice, highest dose without death or dramatic weight loss within 14 days): 10 to 12 mg/kg
Albumin (Blood biochemistry; females): 31 g/1
Alk. Phos. (Blood biochemistry; females): 162 μ/1
Calcium (Blood biochemistry; females): 2.9 mmol/1
Chloride (Blood biochemistry; females): 118 mmol/1
Cholesterol (Blood biochemistry; females): 4.7 mmol/1
Creatinine (Blood biochemistry; females): 123 μmol/1
Glucose (Blood biochemistry; females): 2.9 mmol/1
Phosphorus (Blood biochemistry; females): 3.4 mmol/1
Sodium (Blood biochemistry; females): 154 mmol/1
Total protein (Blood biochemistry; females): 57 g/1
Urea (Blood biochemistry; females): 12.5 mmol/1
Uric acid (Blood biochemistry; females): 350 μmol/1
Albumin (Blood biochemistry; males): 21 g/1
Alk. Phos. (Blood biochemistry; males): 129 μ/1
Bilirubin (Blood biochemistry; males): 0 μmol/1
Calcium (Blood biochemistry; males): 1.6 mmol/1
Chloride (Blood biochemistry; males): 117 mmol/1
Cholesterol (Blood biochemistry; males): 6.0 mmol/1
Creatinine (Blood biochemistry; males): 37 μmol/1
Glucose (Blood biochemistry; males): 1.3 mmol/1
Phosphorus (Blood biochemistry; males): 5.2 mmol/1
Sodium (Blood biochemistry; males): 150 mmol/1
Total protein (Blood biochemistry; males): 39 g/1
Urea (Blood biochemistry; males): 12.4 mmol/1
Uric acid (Blood biochemistry; males): 333 μmol/1
histopathology, gonads [4]: lack of follicular maturation and of spermatogenesis
histopathology, heart [4]: mild to moderate myolysis was seen in all (13) mice
histopathology, kidney [4]: advanced signs of nephrosis
histopathology, lungs, adrenals, small bowel, pancreas, urinary bladder [4]: No damage was observed
histopathology, spleen [4]: reversible atrophy of the red and white pulp
histopathology, liver ([4]; listed as free doxorubicin, HCl): hematopoiesis foci were present in both groups; also recorded: microcytosis was also observed
tumor growth (C-26 colon carcinoma [5]): suppressed tumor growth to a modest extent compared with the saline control
AUC [6]: 7.1 to 10.0 mg/L
clearance [6]: 10 to 15 mL/min
Kinetic Pattern ([6]; iv): Bi-exp.
Peak Conc. ([6]; iv): 0.4 to 2.2 mg/L
in vitro activity against C-26 colon carcinoma (C-26 colon carcinoma [7]): show in vitro activity against this tumor
in vitro sensitivity of MC2 cells [8]: sensitive in vitro
t1/2 [9]: 1.9 to 3.3 h
Tumor/Heart (J-6456 lymphoma [10]; 4 hours): 0.0052
Plasma (J-6456 lymphoma [10]; 4 hours): 0.9 (0.0) μg/ml
Ascites Tumor (tumor & fluid) (J-6456 lymphoma [10]; 4 hours): 0.3 (0.1) μg/ml
Heart (J-6456 lymphoma [10]; 4 hours): 5.7 (3.4) μg/gram
Liver (J-6456 lymphoma [10]; 4 hours): 8.1 (1.4) μg/gram
Tumor/Heart (J-6456 lymphoma [10]; 24 hours): 0.04
Plasma (J-6456 lymphoma [10]; 24 hours): 0.0 µg/mL
Ascites Tumor (tumor & fluid) (J-6456 lymphoma [10]; 24 hours): 0.1 (0.1) μg/ml
Heart (J-6456 lymphoma [10]; 24 hours): 2.5 (0.3) μg/gram
Liver (J-6456 lymphoma [10]; 24 hours): 6.2 (4.8) μg/gram
Tumor/Heart (J-6456 lymphoma [10]; 48 hours): 0.266
Plasma (J-6456 lymphoma [10]; 48 hours): 0.0 µg/mL
Ascites Tumor (tumor & fluid) (J-6456 lymphoma [10]; 48 hours): 0.4 (0.3) μg/ml
Heart (J-6456 lymphoma [10]; 48 hours): 1.5 (0.6) μg/gram
Liver (J-6456 lymphoma [10]; 48 hours): 6.1 (3.6) μg/gram

COc1cccc2c1C(=O)c1c(O)c3c(c(O)c1C2=O)C[C@@](O)(C(=O)CO)C[C@@H]3O[C@H]1C[C@H](N)[C@@H](O)[C@H](C)O1 [EPI, Epirubicin HCl]
survival of the animals at 120 days following tumor implantation (C-26 colon carcinoma [2]): none
tumor growth compared with the saline control (C-26 colon carcinoma [2]): neither free doxorubicin nor free epirubicin at 6 mg/kg significantly suppressed tumor growth
tumor response, delayed treatment (C-26 colon carcinoma [2]; days 3, 10, 17 or days 10, 17, 24, 6 mg/kg (liposomes also 9 mg/kg), FIGS. 15B, 15C, 18, listed as free epirubicin, HCl): only a modest retardation in the rate of tumor growth; also recorded: no tumor regression was seen
tumor growth [11]: the tumor grows quickly
MTD at 14 days (Maximum tolerated dose; mouse, in vivo): 10 mg/kg
weight change ([12]; three weekly injections from day 3, 26-day period, C-26 tumor-bearing mice, FIG. 19): lost weight rapidly starting about day 10
histological examination of heart muscle tissue ([12]; three weekly injections, 6 mg/kg free, 6 or 9 mg/kg liposomal): significant cardiomyopathy was observed
in vitro activity against C-26 colon carcinoma (C-26 colon carcinoma [7]): show in vitro activity against this tumor
in vitro sensitivity of MC2 cells [8]: sensitive in vitro
Surviving mice at 120 days ([13]; 3 mg/kg): 5/5
Surviving mice at 120 days ([13]; 6 mg/kg): 5/5
Surviving mice at 120 days ([13]; 9 mg/kg): 2/5
Surviving mice at 120 days ([13]; 12 mg/kg): 0/5
Surviving mice at 120 days ([13]; 15 mg/kg): 0/5
dose at which 2/5 animals died ([13]; 120 days): 9 mg/kg
